# ChEMBL document CHEMBL1201862, “PubChem BioAssay data set” (2004)
# Calls of active or inactive are those of the source.
# Tests used:
# [1] = target: T1, Eukaryotic translation initiation factor 4H (Homo sapiens, UniProt Q15056); assay: human eIF4H binding inhibitors, primary screen, translation initiation inhibitor project, biochemical, uHTS, fluorescence polarization (AID 2012)
# [2] = target: T2, Polyadenylate-binding protein 1 (Homo sapiens, UniProt P11940); assay: PABP poly(A) RNA binding inhibitors, primary screen, biochemical, fluorescence polarization, uHTS (AID 2014)
# T2 sequence (P11940 whole entry): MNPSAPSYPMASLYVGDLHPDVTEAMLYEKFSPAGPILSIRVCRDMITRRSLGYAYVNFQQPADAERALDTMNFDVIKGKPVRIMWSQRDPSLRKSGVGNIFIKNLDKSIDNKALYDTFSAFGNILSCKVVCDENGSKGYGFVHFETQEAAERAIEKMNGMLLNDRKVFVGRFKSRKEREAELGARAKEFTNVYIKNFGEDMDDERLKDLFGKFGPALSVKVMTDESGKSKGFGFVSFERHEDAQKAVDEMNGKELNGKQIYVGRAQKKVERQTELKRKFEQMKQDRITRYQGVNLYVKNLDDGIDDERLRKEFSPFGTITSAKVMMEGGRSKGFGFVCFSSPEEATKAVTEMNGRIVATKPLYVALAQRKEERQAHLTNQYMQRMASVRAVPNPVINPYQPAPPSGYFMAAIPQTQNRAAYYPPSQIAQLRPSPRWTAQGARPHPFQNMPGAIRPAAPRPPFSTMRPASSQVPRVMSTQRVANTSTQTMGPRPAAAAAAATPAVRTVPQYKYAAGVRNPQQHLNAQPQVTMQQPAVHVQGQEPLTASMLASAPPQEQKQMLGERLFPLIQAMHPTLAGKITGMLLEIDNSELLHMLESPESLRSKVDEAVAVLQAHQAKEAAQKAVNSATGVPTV
# [3] = target: T1, Eukaryotic translation initiation factor 4H; assay: eIF4H inhibition in translation initiation, SAR follow-up (AID 435011); assay type: functional
# [4] = target: DNA dC->dU-editing enzyme APOBEC-3A (Homo sapiens, UniProt P31941); assay: Dose Response confirmation of small molecule APOBEC3A DNA Deaminase Inhibitors via a fluorescence-based single-stranded DNA deaminase assay. [Related pubchem assays (depositor defined):AID493011, AID493024]; assay type: functional
# Sequence of DNA dC->dU-editing enzyme APOBEC-3A (P31941 whole entry): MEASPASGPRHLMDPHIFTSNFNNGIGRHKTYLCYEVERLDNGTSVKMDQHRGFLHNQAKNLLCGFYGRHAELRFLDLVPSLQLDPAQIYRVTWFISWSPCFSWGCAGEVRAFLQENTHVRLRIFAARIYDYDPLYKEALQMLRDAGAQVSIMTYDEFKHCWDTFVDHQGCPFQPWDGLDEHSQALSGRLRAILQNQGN
# [5] = target: T2, Polyadenylate-binding protein 1; assay: PABP inhibition in translation initiation, SAR follow-up (AID 435018); assay type: functional
# [6] = target: DNA dC->dU-editing enzyme APOBEC-3G (Homo sapiens, UniProt Q9HC16); assay type: functional;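 also: Dose-response counterscreen measuring inhibition of APOBEC3G DNA deaminase activity, run while confirming APOBEC3A inhibitors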
# Sequence of DNA dC->dU-editing enzyme APOBEC-3G (Q9HC16 whole entry): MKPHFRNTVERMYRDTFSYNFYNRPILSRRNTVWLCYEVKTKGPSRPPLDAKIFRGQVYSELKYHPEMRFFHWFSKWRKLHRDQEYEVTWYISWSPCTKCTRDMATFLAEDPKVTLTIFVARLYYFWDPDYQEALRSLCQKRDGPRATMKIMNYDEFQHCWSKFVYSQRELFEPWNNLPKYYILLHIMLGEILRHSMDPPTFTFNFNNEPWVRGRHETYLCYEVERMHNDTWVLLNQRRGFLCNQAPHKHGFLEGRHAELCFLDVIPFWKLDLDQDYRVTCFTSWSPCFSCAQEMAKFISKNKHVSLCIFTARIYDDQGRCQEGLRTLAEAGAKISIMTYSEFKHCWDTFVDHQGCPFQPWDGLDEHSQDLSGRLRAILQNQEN
# Leucine aminopeptidase = Leucine aminopeptidase (Plasmodium falciparum 3D7, UniProt Q8IL11); assay: P. falciparum M17LAP inhibitors, primary screen, biochemical, fluorogenic H-Leu-NHMec substrate, 1536-well (AID 1619); assay type: functional
# Sequence of Leucine aminopeptidase (Q8IL11 whole entry): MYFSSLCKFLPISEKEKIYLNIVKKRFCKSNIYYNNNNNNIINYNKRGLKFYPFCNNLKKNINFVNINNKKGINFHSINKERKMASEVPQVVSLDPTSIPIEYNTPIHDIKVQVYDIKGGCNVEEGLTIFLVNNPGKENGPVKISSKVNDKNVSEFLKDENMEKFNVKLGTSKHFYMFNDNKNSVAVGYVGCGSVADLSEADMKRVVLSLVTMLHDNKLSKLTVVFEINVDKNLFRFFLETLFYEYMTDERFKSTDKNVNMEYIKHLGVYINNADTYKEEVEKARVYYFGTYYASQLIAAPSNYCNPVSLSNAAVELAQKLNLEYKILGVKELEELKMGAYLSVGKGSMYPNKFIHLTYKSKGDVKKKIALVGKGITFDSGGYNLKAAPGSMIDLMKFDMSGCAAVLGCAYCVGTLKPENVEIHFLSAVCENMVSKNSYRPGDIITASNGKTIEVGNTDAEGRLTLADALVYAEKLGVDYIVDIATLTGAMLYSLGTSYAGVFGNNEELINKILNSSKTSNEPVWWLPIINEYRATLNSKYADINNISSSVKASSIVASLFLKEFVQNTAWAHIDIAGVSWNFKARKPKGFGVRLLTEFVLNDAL
# [7] = target: Bifunctional protein GlmU (Mycobacterium tuberculosis, UniProt P9WMN3); assay: Inhibitors of Mycobacterial Glucosamine-1-phosphate acetyl transferase (GlmU). Secondary screen.; parameters: species or system Mycobacterium tuberculosis H37Rv
# Sequence of Bifunctional protein GlmU (P9WMN3 whole entry): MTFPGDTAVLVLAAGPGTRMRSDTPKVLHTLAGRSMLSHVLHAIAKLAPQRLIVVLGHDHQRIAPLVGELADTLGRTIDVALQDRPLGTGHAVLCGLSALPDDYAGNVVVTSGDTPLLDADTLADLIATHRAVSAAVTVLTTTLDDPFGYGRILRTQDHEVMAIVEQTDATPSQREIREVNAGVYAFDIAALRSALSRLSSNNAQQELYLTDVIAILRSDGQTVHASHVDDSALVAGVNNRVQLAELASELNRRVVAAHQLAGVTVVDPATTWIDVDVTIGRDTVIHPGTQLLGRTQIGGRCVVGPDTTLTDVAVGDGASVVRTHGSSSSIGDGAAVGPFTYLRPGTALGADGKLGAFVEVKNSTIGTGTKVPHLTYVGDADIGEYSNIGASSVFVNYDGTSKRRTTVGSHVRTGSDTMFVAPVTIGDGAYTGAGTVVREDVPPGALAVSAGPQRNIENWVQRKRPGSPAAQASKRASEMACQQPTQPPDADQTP
# ORF 73 = target: T3, ORF 73 (Human herpesvirus 8, UniProt O40947); assay: inhibitors of C-LANA binding to LBS DNA, dose response, biochemical, fluorescence polarization, cherry-picked samples (AID 504725); parameters: species or system Human gammaherpesvirus 8;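 also: fluorescence polarization of a labeled DNA duplex reporting LANA DNA binding; potency is for inhibitors that block LANA binding to the DNA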
# T3 sequence (O40947 whole entry): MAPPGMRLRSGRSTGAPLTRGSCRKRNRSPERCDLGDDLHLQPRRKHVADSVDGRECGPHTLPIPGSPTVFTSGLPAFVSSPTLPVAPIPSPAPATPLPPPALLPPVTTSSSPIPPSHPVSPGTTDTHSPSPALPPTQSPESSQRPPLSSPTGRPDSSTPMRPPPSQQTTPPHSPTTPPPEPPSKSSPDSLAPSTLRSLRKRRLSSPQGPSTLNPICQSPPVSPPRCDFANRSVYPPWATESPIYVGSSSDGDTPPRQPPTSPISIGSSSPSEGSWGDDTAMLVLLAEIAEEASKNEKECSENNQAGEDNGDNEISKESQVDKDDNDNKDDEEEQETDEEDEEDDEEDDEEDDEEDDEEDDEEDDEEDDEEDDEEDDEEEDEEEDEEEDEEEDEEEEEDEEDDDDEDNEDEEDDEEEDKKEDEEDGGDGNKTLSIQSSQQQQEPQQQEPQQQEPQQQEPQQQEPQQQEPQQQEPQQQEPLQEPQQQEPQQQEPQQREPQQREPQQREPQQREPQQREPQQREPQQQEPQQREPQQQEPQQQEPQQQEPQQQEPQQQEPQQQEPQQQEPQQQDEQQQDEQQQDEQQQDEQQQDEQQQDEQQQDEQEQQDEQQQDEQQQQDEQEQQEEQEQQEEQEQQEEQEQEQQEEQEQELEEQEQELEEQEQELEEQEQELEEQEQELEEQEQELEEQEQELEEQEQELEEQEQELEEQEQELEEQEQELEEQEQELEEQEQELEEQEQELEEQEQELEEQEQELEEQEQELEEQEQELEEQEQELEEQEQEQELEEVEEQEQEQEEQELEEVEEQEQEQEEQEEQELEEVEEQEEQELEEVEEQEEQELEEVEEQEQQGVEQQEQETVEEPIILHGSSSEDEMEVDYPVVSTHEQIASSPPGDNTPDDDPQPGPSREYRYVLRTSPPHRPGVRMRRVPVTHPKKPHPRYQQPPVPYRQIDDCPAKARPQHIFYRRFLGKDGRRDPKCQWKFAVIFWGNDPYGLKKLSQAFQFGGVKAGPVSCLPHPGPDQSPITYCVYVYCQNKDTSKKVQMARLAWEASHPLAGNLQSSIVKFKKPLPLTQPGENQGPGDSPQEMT
# [8] = target: T4, Carboxy-terminal domain RNA polymerase II polypeptide A small phosphatase 1 (Homo sapiens, UniProt Q9GZU7); assay: inhibitors of CTDSP1, concentration-response testing, biochemical assay, absorbance-based, actives from ultra-high-throughput screening (AID 540297); assay type: functional
# T4 sequence (Q9GZU7 whole entry): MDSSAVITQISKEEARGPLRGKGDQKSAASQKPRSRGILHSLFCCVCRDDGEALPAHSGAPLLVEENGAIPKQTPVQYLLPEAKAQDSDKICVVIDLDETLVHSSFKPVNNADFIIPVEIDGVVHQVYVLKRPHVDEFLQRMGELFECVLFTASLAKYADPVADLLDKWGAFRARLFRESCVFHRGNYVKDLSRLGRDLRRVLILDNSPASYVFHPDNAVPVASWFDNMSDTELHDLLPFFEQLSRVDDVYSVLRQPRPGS
# [9] = target: DNA (cytosine-5)-methyltransferase 1 (Homo sapiens, UniProt P26358); assay: DNMT1 methyltransferase inhibitors, confirmation, biochemical, fluorescent molecular beacon (AID 602386); assay type: functional
# Sequence of DNA (cytosine-5)-methyltransferase 1 (P26358 whole entry): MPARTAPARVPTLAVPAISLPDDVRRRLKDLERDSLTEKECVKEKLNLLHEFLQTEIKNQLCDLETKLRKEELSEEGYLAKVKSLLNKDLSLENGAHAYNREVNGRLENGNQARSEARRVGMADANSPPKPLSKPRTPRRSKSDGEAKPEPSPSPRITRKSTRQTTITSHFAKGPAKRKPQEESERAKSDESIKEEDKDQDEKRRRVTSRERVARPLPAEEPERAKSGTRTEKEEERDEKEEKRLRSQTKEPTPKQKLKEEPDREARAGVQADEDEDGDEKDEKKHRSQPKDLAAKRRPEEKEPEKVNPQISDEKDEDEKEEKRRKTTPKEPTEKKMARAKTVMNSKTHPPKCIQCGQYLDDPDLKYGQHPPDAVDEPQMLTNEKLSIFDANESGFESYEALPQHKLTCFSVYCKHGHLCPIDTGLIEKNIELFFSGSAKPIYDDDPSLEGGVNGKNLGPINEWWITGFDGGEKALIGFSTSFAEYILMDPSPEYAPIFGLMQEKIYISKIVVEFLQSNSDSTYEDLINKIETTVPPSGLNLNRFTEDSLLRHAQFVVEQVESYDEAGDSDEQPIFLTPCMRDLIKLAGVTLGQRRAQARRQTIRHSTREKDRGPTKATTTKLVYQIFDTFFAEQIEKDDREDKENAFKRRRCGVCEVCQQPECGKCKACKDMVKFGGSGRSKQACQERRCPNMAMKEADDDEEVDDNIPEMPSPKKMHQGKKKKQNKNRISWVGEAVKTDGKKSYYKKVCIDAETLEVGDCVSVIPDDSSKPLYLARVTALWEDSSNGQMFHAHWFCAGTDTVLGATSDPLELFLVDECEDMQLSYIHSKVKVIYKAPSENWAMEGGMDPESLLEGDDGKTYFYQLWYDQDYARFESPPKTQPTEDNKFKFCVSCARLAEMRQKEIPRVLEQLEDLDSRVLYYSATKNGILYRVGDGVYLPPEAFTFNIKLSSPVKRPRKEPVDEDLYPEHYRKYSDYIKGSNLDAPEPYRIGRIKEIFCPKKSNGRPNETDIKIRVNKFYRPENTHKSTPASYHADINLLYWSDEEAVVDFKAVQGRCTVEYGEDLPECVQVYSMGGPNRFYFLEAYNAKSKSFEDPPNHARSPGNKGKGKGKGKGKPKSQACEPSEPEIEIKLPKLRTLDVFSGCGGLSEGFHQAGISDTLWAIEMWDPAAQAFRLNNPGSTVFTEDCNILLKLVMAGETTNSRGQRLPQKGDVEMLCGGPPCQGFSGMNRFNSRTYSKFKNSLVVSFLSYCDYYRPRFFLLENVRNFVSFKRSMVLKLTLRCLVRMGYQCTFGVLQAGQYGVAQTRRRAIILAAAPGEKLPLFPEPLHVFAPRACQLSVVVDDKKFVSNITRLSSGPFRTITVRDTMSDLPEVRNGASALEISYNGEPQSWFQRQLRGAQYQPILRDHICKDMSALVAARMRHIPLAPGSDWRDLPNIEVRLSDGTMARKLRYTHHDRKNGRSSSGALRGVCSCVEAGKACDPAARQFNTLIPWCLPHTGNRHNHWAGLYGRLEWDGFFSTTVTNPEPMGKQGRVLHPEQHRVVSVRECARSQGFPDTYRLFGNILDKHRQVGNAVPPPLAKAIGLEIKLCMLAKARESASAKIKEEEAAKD
# [10] = target: T5, Long-chain-fatty-acid--AMP ligase FadD28 (Mycobacterium tuberculosis, UniProt P9WQ59); assay: Fluorescence polarization aasay to screen for inhibitors that compete for the binding of FadD28 to a bisubstrate Measured in Biochemical System Using Plate Reader - 2147-01_Inhibitor_Dose_CherryPick_Activity.; assay type: functional, Mycobacterium tuberculosis H37Rv
# T5 sequence (P9WQ59 whole entry): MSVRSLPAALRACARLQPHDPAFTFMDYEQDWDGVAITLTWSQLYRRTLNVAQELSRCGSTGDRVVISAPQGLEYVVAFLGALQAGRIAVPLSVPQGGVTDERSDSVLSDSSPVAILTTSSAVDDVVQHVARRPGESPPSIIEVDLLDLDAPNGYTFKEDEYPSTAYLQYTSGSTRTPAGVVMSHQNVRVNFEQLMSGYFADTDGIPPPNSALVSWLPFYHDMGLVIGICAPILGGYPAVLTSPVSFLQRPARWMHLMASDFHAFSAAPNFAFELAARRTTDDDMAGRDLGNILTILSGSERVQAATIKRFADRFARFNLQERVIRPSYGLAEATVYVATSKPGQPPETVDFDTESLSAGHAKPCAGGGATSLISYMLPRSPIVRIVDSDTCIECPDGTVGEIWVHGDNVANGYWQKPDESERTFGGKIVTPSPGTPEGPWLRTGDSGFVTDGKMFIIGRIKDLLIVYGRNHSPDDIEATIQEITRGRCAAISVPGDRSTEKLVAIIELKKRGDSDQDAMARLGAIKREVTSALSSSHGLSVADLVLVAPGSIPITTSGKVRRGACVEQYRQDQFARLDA
# [11] = target: T6, Histone-lysine N-methyltransferase NSD2 (Homo sapiens, UniProt O96028); assay type: biochemical
# T6 sequence (O96028 whole entry): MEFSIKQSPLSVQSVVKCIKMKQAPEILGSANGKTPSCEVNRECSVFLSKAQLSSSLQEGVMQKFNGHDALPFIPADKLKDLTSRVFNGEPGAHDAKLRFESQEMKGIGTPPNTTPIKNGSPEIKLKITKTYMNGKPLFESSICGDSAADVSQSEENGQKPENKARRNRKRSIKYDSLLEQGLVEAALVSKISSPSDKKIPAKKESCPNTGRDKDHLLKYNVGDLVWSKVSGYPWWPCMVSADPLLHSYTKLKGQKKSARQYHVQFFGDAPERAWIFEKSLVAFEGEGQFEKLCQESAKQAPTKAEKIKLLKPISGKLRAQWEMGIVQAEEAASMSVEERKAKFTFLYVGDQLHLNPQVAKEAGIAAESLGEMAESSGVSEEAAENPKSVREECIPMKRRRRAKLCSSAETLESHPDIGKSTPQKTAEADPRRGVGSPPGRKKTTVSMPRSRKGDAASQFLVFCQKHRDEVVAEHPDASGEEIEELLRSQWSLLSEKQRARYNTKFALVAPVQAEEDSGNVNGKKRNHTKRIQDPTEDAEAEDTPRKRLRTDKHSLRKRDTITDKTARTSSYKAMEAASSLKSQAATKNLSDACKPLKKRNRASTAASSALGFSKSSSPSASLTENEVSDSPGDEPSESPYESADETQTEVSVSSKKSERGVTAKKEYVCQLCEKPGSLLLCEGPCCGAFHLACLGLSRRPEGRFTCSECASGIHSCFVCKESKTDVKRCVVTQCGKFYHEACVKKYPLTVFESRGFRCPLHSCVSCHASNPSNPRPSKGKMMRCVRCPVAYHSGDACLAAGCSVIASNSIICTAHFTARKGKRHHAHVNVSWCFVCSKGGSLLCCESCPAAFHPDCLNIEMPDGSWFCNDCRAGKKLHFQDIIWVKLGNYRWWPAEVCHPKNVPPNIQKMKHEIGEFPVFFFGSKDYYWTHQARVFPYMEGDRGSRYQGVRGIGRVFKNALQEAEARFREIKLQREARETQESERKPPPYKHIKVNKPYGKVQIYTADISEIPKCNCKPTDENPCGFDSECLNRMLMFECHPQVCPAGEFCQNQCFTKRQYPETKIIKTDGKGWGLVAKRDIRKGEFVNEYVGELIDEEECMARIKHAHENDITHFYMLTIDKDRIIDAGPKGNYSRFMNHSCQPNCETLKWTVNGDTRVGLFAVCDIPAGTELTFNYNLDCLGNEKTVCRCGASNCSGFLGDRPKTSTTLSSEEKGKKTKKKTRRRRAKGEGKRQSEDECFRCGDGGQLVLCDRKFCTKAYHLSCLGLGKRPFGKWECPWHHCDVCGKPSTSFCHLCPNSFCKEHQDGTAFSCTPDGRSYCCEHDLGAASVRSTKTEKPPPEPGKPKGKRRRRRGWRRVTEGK
# [12] = target: T7, Alkaline phosphatase, tissue-nonspecific isozyme (Homo sapiens, UniProt P05186)
# T7 sequence (P05186 whole entry): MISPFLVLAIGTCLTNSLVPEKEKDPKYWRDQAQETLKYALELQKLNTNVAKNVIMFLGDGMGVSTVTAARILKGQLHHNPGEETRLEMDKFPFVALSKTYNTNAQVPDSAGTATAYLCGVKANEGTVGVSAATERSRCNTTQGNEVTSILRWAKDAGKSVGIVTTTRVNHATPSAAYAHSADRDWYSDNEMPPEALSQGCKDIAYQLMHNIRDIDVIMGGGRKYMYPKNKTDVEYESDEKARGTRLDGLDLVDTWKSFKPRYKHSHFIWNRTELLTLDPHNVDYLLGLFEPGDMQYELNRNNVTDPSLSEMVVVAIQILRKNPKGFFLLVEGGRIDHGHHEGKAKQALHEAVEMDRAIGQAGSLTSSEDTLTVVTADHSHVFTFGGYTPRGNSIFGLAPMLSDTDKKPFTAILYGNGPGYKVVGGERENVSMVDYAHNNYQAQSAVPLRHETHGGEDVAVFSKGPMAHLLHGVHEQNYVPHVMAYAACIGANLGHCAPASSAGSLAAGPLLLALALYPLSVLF
# [13] = target: Intestinal-type alkaline phosphatase (Mus musculus, UniProt P24822); assay: PubChem AID 488785; assay type: functional
# [14] = target: T7, Alkaline phosphatase, tissue-nonspecific isozyme; assay: TNAP enzyme inhibition by screening hits, dose response, selectivity assay for mouse IAP inhibitor project, biochemical, human TNAP, uHTS hits (AID 488906); assay type: functional
# [15] = target: Intestinal-type alkaline phosphatase (Homo sapiens, UniProt P09923); assay: inhibition of human intestinal alkaline phosphatase – biochemical, dose response (AID 488876); assay type: functional
# Sequence of Intestinal-type alkaline phosphatase (Homo sapiens, UniProt P09923) (P09923 whole entry): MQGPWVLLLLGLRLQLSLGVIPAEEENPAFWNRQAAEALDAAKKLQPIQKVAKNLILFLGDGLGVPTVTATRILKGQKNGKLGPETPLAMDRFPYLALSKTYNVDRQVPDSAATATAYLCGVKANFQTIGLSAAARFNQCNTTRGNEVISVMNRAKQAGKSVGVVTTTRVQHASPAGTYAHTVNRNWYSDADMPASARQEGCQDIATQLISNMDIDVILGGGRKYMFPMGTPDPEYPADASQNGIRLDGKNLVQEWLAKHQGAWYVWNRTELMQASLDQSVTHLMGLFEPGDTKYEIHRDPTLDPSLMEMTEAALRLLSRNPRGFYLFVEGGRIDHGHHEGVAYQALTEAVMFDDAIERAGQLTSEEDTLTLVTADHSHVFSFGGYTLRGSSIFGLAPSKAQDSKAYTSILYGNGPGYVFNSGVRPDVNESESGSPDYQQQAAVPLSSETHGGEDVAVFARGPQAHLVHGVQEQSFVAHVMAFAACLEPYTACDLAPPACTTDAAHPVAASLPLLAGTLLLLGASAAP
# [16] = Shn3 3'UTR reporter inhibitors, dose response, cell-based, Clone20 osteoblasts, firefly luciferase, cherry-picked (AID 624132); assay type: functional;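 also: firefly luciferase luminescence from reporter carrying the Shn3 3'UTR in osteoblasts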
# [17] = HepG2 cell cytotoxicity, dose response, cytotoxicity control for Shn3 inhibitor project, CellTiter-Glo, cherry-picked (AID 624134); assay type: functional, cell-based
# [18] = control 3'UTR Renilla luciferase suppression, dose response, counter-screen for Shn3 inhibitor project, cell-based, Clone20-Shn3RL, cherry-picked (AID 624133); assay type: functional
# X-box-binding protein 1 = X-box-binding protein 1 (Homo sapiens, UniProt P17861); assay type: functional, Cricetulus griseus;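 also: confirmatory dose-response counter-screen serving a CHOP assay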
# Sequence of X-box-binding protein 1 (P17861 whole entry): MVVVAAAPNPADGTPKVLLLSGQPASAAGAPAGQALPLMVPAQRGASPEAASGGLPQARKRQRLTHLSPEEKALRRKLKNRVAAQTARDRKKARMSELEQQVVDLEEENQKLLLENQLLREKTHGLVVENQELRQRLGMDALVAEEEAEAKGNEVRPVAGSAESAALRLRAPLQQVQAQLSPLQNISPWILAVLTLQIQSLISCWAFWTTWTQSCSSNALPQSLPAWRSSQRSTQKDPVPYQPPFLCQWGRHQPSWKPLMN
structure (smiles),measurement,setting,value
CCN1CCN(S(=O)(=O)c2ccc(Cl)c(C(=O)N(CC)CC(=O)Nc3ccc(OC)cc3)c2)CC1,IC50,[1],85.9 µM (active)
same,IC50,[2],3.26 µM (active)
same,IC50,[3],21 µM (active)
same,IC50,[4],3.4 µM (active)
same,IC50,[5],4.68 µM (active)
same,IC50,[6],3.43 µM (active)
Cc1cc(/C=C2\C(=O)NC(=O)N(Cc3ccccc3)C2=O)c(C)n1-c1ccc(Cl)c(C(=O)O)c1,IC50,Leucine aminopeptidase,72.7 µM (active)
same,IC50,[7],71.9 µM (active)
same,AC50,ORF 73,76.2 µM (active)
same,IC50,[8],1.02 µM (active)
same,IC50,[9],3.35 µM (active)
same,AC50,[10],35.6 µM (active)
same,AC50,[11],5.47 µM (active)
CC(C)CN=C(S)NNC(=O)c1ccc2c(c1)OCO2,EC50,[12],40.7 µM (active)
Cc1ccc(N=C(N)Nc2nc(C)cc(N3CCCCC3)n2)c(C)c1,EC50,[12],71.7 µM (not active)
same,IC50,[13],3.34 µM (active)
same,IC50,[14],32.1 µM (active)
same,IC50,[15],70.1 µM (active)
same,AC50,[16],0.891 µM (active)
same,AC50,[17],5.74 µM (active)
same,AC50,[18],0.639 µM (active)
Cc1ccc(/C=N/n2c(S)nnc2C2CCCCC2)s1,Absolute IC50 (XBP1),X-box-binding protein 1,10 µM
CC(=O)Nc1cccc(NC(=O)CSc2ccc(-c3ccco3)nn2)c1,IC50,[1],10.3 µM (active)
same,IC50,[2],46.3 µM (active)
same,IC50,[3],25 µM (active)
same,IC50,[5],> 100 µM (inactive)
